Laboratory results from patent publication US11618743B2, “Herbicidal compounds” (SYNGENTA PARTICIPATIONS AG, priority 2017, dated 2023).

Tests used:
Assay in all cases: Post-emergence efficacy, Method A
Assay type in all cases: in vivo
Conditions in all cases: Application rate 500 g/Ha; Method A; evaluated after 13 days
Eleusine indica (ELEIN) = test system: Eleusine indica (ELEIN)
Method in brief: (§1)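 After 14 days' growth in pots, plants were treated by spray with compound diluted from a 50 g/l IF50 stock concentrate into 0.25% or 1% Empicol ESC70 + 1% ammonium sulphate. Thirteen days later, injury was scored 0–100.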

[1] = test system: Digitaria sanguinalis (DIGSA)
Method in brief: as §1

Lolium perenne (LOLPE) = test system: Lolium perenne (LOLPE)
Method in brief: as §1

[2] = test system: Euphorbia heterophylla (EPHHL)
Method in brief: as §1

[3] = test system: Echinochloa crus-galli (ECHCG)
Method in brief: as §1

Setaria faberi (SETFA) = test system: Setaria faberi (SETFA)
Method in brief: as §1

[4] = test system: Chenopodium album (CHEAL)
Method in brief: as §1

[5] = test system: Ipomoea hederacea (IPOHE)
Method in brief: as §1

[6] = test system: Amaranthus palmeri (AMAPA)
Method in brief: as §1

Structure (SMILES) | Control of weed species ELEIN after post-emergence application (100=total damage to plant; 0=no damage to plant) (Eleusine indica (ELEIN)) | Control of weed species DIGSA after post-emergence application (100=total damage to plant; 0=no damage to plant) [1] | Control of weed species LOLPE after post-emergence application (100=total damage to plant; 0=no damage to plant) (Lolium perenne (LOLPE)) | Control of weed species EPHHL after post-emergence application (100=total damage to plant; 0=no damage to plant) [2] | Control of weed species ECHCG after post-emergence application (100=total damage to plant; 0=no damage to plant) [3] | Control of weed species SETFA after post-emergence application (100=total damage to plant; 0=no damage to plant) (Setaria faberi (SETFA)) | Control of weed species CHEAL after post-emergence application (100=total damage to plant; 0=no damage to plant) [4] | Control of weed species IPOHE after post-emergence application (100=total damage to plant; 0=no damage to plant) [5] | Control of weed species AMAPA after post-emergence application (100=total damage to plant; 0=no damage to plant) [6]
COC(=O)C[n+]1ccc(-c2ncccn2)cn1.[Br-] [Compound A2, methyl 2-(4-pyrimidin-2-ylpyridazin-1-ium-1-yl)acetate bromide] | 30 | 40 | 0 | 90 | 50 | 80 | 20 | 10 | 60
CCOP(=O)(CC[n+]1ccc(-c2cnccn2)cn1)OCC.O=C([O-])C(F)(F)F [Compound A8] | 20 | 20 | 0 | 10 | 10 | 20 | 10 | 10 | 10
N#Cc1cnc(-c2cc[n+](CCS(=O)(=O)[O-])nc2)nc1 [Compound A25] | 50 | 50 | 40 | 40 | 70 | 60 | 60 | 50 | 100
Cc1n[n+](CCS(=O)(=O)[O-])ccc1-c1ncccn1 [Compound A88, 2-(3-methyl-4-pyrimidin-2-yl-pyridazin-1-ium-1-yl)ethanesulfonate] | 90 | 90 | 60 | 60 | 60 | 70 | 70 | 30 | 100
COc1cc(C)nc(-c2cc[n+](CCS(=O)(=O)[O-])nc2)n1 [Compound A94] | 20 | 30 | 20 | 40 | 30 | 40 | 90 | 30 | 70
CCOP(=O)(O)CC[n+]1ccc(-c2ncccn2)cn1.O=C([O-])C(F)(F)F [Compound A113, ethoxy-[2-(4-pyrimidin-2-ylpyridazin-1-ium-1-yl)ethyl]phosphinate] | 40 | 60 | 10 | 100 | 60 | 50 | 90 | 60 | 40
O=c1cc(-c2cc[n+](CCCS(=O)(=O)[O-])nc2)nc[nH]1 [Compound A116] | 20 | 30 | 10 | 50 | 20 | 30 | 80 | 10 | 100
CCOP(=O)(CC[n+]1ccc(-c2ncccn2)cn1)OCC.O=C([O-])C(F)(F)F [Compound A124, 1-(2-diethoxyphosphorylethyl)-4-pyrimidin-2-yl-pyridazin-1-ium] | 0 | 10 | 0 | 0 | 0 | 20 | 0 | 0 | 0
O=C(O)c1ccnc(-c2cc[n+](CCCS(=O)(=O)[O-])nc2)n1 [Compound A146] | 80 | 80 | 50 | 50 | 90 | 100 | 40 | 30 | 90
